Common to all, as to format: cell-based
The target of test [1] is human α1G T-type channels (Homo sapiens, UniProt O43497). The test is described as follows: T-type calcium channel block, whole cell patch clamp, α1G. To be noted: HEK cells stably expressing human α1G; mainly non-inactivated protocol; values above 10,000 nM represented as 10000. The method, boiled down:
(§1)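 Whole-cell T-type currents, stably transfected HEK 293 (human α1G/α1H), passage 4-20. Cmpd in external soln, 0.1-0.01% DMSO, local gravity perfusion after ~10 min rest. Two voltage protocols: non-inactivating (resting block), inactivation (voltage-dependent block).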

The target of test [2] is human α1H T-type channels (Homo sapiens, UniProt O95180). The test is described as follows: T-type calcium channel block, whole cell patch clamp, α1H. To be noted: HEK cells stably expressing human α1H; mainly non-inactivated protocol; values above 10,000 nM represented as 10000. Summed up: as §1
Test [3] has as its target N-type calcium channel subunits (α1B, α2δ, and β3a) (Homo sapiens, UniProt Q00975). As to the kind of experiment: Block of Cav2.2 channel, whole cell voltage clamp, manual and PatchXpress. To be noted: Table 5; table follows Assay Example 3 (whole cell voltage clamp / PatchXpress); assay not given. Summed up:
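Percent block taken as current amplitude ratio with versus without compound, applied in rising doses; IC50 fitted where one cell received multiple doses. Protocol: 50 ms pulses to +20 mV at 0.067 Hz from […] or −90 mV holding; P/n leak subtraction, no junction-potential correction; manual and PatchXpress recordings.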

The record followed here is US20120245137A1 (Zalicus Pharmaceuticals Ltd., priority 2009, published 2012).

Sequence of human α1G T-type channels (O43497 whole entry, the tested form may be a part): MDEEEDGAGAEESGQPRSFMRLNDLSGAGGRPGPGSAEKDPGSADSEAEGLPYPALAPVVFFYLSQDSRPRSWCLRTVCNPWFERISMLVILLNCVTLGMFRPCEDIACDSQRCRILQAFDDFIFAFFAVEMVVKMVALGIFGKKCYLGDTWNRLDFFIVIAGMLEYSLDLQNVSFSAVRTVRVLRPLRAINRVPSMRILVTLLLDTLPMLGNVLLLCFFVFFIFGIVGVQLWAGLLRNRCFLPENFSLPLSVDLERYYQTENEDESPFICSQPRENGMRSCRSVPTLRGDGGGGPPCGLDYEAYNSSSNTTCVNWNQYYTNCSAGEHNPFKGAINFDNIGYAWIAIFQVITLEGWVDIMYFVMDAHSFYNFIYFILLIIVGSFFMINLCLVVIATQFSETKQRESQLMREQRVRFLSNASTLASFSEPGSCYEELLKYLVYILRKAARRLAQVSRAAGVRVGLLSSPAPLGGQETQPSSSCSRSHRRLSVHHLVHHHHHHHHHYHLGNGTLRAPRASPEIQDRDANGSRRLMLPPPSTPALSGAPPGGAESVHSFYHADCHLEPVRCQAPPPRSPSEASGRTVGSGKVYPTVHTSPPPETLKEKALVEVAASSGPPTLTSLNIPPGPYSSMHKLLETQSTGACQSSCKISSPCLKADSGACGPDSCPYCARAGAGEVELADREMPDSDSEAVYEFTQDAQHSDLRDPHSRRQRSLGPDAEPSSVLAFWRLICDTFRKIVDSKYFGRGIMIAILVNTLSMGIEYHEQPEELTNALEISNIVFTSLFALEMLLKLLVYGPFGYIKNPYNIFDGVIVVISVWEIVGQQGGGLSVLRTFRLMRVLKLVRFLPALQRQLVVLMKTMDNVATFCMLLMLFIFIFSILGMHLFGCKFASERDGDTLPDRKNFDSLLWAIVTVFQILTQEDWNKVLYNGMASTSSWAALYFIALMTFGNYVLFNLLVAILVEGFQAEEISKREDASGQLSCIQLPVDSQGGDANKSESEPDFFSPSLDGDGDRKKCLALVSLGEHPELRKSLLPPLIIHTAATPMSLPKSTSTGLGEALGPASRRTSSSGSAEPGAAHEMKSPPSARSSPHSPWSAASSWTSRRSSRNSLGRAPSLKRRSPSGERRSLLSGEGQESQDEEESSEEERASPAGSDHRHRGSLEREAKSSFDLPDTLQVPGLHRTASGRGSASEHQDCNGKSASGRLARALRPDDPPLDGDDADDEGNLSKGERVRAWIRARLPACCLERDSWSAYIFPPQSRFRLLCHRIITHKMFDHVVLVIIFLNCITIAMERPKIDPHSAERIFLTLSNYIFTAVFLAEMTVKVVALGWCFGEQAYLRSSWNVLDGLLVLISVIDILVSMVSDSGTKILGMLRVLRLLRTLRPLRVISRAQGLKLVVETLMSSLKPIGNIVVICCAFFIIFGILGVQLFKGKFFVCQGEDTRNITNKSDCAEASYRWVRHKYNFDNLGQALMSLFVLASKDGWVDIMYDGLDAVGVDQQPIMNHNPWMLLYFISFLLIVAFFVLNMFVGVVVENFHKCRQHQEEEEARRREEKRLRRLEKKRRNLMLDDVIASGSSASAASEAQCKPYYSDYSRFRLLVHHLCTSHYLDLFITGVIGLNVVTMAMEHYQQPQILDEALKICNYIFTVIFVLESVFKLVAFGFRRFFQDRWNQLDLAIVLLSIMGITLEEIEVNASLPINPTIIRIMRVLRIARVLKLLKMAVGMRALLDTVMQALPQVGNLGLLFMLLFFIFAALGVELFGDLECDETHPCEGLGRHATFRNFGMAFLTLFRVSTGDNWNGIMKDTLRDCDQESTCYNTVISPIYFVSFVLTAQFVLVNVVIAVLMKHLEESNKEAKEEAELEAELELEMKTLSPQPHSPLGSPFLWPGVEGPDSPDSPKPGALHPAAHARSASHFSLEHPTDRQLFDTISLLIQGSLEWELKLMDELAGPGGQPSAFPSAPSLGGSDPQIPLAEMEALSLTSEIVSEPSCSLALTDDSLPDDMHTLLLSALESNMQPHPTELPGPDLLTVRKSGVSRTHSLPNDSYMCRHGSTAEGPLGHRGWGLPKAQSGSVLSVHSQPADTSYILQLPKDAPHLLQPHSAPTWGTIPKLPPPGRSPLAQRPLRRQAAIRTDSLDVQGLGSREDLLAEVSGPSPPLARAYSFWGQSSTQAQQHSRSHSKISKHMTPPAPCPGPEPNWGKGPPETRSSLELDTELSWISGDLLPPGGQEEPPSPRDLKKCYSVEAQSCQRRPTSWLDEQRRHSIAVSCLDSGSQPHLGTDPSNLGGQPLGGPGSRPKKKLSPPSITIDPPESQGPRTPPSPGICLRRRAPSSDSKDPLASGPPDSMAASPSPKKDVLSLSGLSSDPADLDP
Sequence of human α1H T-type channels (O95180 whole entry): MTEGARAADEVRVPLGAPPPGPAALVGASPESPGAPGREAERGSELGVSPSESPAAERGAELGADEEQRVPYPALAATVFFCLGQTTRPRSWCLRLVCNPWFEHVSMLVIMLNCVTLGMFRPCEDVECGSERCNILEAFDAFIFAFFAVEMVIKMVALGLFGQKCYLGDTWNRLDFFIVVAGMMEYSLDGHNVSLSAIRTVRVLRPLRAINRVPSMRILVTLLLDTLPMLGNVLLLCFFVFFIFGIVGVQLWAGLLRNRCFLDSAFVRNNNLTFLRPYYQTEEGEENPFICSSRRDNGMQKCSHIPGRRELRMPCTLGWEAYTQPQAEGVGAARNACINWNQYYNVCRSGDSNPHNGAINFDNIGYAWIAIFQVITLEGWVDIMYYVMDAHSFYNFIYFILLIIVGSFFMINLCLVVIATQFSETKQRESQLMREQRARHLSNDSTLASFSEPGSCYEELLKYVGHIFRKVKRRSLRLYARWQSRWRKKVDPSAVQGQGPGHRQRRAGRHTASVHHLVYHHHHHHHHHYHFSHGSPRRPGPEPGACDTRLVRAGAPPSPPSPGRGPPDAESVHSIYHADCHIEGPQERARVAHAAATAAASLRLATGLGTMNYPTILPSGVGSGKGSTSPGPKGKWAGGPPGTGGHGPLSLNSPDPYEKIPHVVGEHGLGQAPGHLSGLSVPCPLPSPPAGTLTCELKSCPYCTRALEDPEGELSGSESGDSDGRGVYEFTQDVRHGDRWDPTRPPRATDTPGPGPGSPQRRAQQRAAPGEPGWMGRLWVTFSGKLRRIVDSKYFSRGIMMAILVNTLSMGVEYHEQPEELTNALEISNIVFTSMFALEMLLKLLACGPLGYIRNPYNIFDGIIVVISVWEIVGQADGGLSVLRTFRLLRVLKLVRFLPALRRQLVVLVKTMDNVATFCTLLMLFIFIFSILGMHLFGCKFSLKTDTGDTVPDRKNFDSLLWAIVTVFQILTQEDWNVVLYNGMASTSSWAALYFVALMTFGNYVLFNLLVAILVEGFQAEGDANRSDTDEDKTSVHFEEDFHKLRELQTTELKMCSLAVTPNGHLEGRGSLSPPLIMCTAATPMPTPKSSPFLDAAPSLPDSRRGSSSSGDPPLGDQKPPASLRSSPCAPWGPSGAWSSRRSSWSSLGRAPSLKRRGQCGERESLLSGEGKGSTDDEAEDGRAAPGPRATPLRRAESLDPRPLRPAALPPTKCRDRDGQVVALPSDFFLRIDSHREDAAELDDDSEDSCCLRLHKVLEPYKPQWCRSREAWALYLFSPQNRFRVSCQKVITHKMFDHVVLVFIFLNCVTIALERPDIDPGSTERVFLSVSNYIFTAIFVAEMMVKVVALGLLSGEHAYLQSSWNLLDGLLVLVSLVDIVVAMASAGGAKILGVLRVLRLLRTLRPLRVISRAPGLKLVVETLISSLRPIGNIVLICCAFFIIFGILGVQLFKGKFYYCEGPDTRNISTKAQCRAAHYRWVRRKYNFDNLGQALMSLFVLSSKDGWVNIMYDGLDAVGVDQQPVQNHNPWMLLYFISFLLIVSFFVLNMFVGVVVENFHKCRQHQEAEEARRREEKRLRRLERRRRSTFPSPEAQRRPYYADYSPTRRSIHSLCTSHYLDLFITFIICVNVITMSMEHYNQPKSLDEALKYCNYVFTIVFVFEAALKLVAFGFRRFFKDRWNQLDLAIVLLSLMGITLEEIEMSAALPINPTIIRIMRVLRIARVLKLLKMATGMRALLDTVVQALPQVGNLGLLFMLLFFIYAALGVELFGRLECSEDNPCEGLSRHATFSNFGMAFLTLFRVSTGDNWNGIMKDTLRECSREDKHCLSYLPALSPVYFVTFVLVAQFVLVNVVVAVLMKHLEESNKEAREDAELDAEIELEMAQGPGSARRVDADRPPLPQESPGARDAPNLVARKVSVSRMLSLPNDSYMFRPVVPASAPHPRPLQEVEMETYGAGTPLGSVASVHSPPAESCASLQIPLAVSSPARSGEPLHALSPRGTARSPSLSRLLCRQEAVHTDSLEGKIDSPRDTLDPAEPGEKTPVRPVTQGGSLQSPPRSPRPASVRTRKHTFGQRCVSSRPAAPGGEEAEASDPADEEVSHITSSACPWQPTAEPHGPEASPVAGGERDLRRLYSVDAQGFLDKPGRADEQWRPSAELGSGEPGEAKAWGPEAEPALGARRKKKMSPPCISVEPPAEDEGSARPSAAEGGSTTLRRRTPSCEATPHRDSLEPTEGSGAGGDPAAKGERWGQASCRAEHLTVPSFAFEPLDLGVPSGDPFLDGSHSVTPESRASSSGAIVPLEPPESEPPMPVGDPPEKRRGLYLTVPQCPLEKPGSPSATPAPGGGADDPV

For the compound `CS(=O)(=O)c1cc(C(F)(F)F)cnc1C(=O)NC[C@H]1C[C@H](S(=O)(=O)c2cccc(C(F)(F)F)c2)C1` [Compound 364, 3-(methylsulfonyl)-5-(trifluoromethyl)-N-(((1R,3R)-3-(3-(trifluoromethyl)phenylsulfonyl)cyclobutyl)methyl)picolinamide], the IC50 in test [1] is 520 nM; in test [2] it was 210 nM; in test [3], 1400 nM.

Consider `COc1cc(F)cc(C(=O)N[C@H]2CC[C@@](F)(S(=O)(=O)c3cccc(C(F)(F)F)c3)CC2)c1` [Compound 87, 3-fluoro-N-((1S,4S)-4-fluoro-4-(3-(trifluoromethyl)phenylsulfonyl)cyclohexyl)-5-methoxybenzamide], for which the IC50 in test [1] is 6440 nM; in test [2], 2100 nM; in test [3], 240 nM.

Regarding `CC1(NC(=O)c2cc(C(F)(F)F)ccn2)CCC(S(=O)(=O)c2cccc(C(F)(F)F)c2)CC1` (stereo not drawn) [Compound 308, N-(1-methyl-4-(3-(trifluoromethyl)phenylsulfonyl)cyclohexyl)-4-(trifluoromethyl)picolinamide], the results for the IC50 in test [1], in test [2] and in test [3] were 4200 nM, 2270 nM and 1450 nM, respectively.

In the case of `O=C(CN[C@H]1CC[C@H](CS(=O)(=O)c2cccc(C(F)(F)F)c2)CC1)NC1CCCCC1` [Compound 118, N-cyclohexyl-2-((1R,4R)-4-((3-(trifluoromethyl)phenylsulfonyl)methyl)cyclohexylamino)acetamide], the IC50 in test [1] was greater than 10000 nM; in test [2], greater than 10000 nM; in test [3], 790 nM.

With `O=S(=O)(CCC(F)(F)F)NC[C@H]1C[C@H](S(=O)(=O)c2cccc(C(F)(F)F)c2)C1` [Compound 425, 3,3,3-trifluoro-N-(((1R,3R)-3-(3-(trifluoromethyl)phenylsulfonyl)cyclobutyl)methyl)propane-1-sulfonamide], the IC50 was determined as 1550 nM in test [1], 1070 nM in test [2] and 3760 nM in test [3].

With `O=C(NC[C@H]1C[C@H](S(=O)(=O)c2cccc(C(F)(F)F)c2)C1)c1ccc(Cl)c(Cl)c1` [Compound 369, 3,4-dichloro-N-(((1R,3R)-3-(3-(trifluoromethyl)phenylsulfonyl)cyclobutyl)methyl)benzamide], the IC50 in test [1] was greater than 10000 nM; in test [2] it was greater than 10000 nM; in test [3], 160 nM.

Regarding `Cc1noc(C)c1S(=O)(=O)N[C@H]1CC[C@@](F)(S(=O)(=O)c2cccc(C(F)(F)F)c2)CC1` [Compound 298, N-((1S,4S)-4-fluoro-4-(3-(trifluoromethyl)phenylsulfonyl)cyclohexyl)-3,5-dimethylisoxazole-4-sulfonamide], the results for the half-inhibitory concentration (IC50) in test [1], in test [2] and in test [3] were 880 nM, 240 nM and 850 nM, respectively.

With `O=C(N[C@H]1CC[C@@H](S(=O)(=O)c2cccc(C(F)(F)F)c2)CC1)c1cncc(C(F)(F)F)c1` [Compound 203, 5-(trifluoromethyl)-N-((1S,4S)-4-(3-(trifluoromethyl)phenylsulfonyl)cyclohexyl)nicotinamide], the IC50 in test [1] turned out to be 2570 nM; in test [2], 1890 nM; in test [3] it was 590 nM.

On to “3-chloro-5-fluoro-N-(1- methyl-4-(3-(trifluoromethyl) phenylsulfonyl)cyclohexyl) benzamide [Compound 318]”, for which the IC50 in test [1] was 2430 nM; in test [2], 1330 nM; in test [3], 620 nM.

Turning to `COc1cc(F)cc(C(=O)N[C@H]2CC[C@H](CS(=O)(=O)c3cccc(C(F)(F)F)c3)CC2)c1` [Compound 100, 3-fluoro-5-methoxy-N-((1R,4R)-4-((3-(trifluoromethyl)phenylsulfonyl)methyl)cyclohexyl)benzamide], the IC50 in test [1] is 5390 nM; in test [2] it was 1790 nM; in test [3], 2320 nM.

As to `O=C1c2cc(C(F)(F)F)nn2CCN1[C@H]1CC[C@@](F)(S(=O)(=O)c2cc(F)cc(C(F)(F)F)c2)CC1` [Compound 333, 5-((1S,4S)-4-fluoro-4-(3-fluoro-5-(trifluoromethyl)phenylsulfonyl)cyclohexyl)-2-(trifluoromethyl)-6,7-dihydropyrazolo[l,5-a]pyrazin-4(5H)-one], the IC50 in test [1] stood at 1820 nM; in test [2], 960 nM; in test [3], 180 nM.

Take `CN(C(=O)CN[C@H]1CC[C@H](S(=O)(=O)c2cccc(C(F)(F)F)c2)CC1)C(C)(C)C` [Compound 70, N-tert-butyl-N-methyl-2-((1R,4R)-4-(3-(trifluoromethyl)phenylsulfonyl)cyclohexylamino)acetamide]: the 50% inhibitory concentration (IC50) in test [1] was 8810 nM; in test [2], 2580 nM; in test [3] it was 1220 nM.

For the compound `CC1(NC(=O)c2ccc(C(F)(F)F)cn2)CCC(S(=O)(=O)c2cccc(C(F)(F)F)c2)CC1` (stereo not drawn) [Compound 312, N-(1-methyl-4-(3-(trifluoromethyl)phenylsulfonyl)cyclohexyl)-5-(trifluoromethyl)picolinamide], the IC50 was 2960 nM in test [1], 1940 nM in test [2] and 1020 nM in test [3].

On to `COc1cc(F)cc(C(=O)NC2CCC(C)(S(=O)(=O)c3cccc(C(F)(F)F)c3)CC2)c1` (stereo not drawn) [Compound 20, 3-fluoro-5-methoxy-N-(4-methyl-4-(3-(trifluoromethyl)phenylsulfonyl)cyclohexyl)benzamide], for which the IC50 stood at 1970 nM in test [1], 1380 nM in test [2] and 70 nM in test [3].

With `O=C(N[C@H]1CC[C@](F)(S(=O)(=O)c2cccc(C(F)(F)F)c2)CC1)c1cc(F)cc(Cl)c1` [Compound 81, 3-chloro-5-fluoro-N-((1R,4R)-4-fluoro-4-(3-(trifluoromethyl)phenylsulfonyl)cyclohexyl)benzamide], the IC50 in test [1] was determined as 380 nM; in test [2], 220 nM; in test [3], 410 nM.

As for `O=C(N[C@H]1CC[C@@](F)(S(=O)(=O)c2cc(F)cc(C(F)(F)F)c2)CC1)c1cn2cc(C(F)(F)F)ccc2n1` [Compound 332, N-((1S,4S)-4-fluoro-4-(3-fluoro-5-(trifluoromethyl)phenylsulfonyl)cyclohexyl)-6-(trifluoromethyl)imidazo[l,2-a]pyridine-2-carboxamide], the figures for the IC50 in test [1], in test [2] and in test [3] were 1560 nM, 780 nM and 620 nM, respectively.

Turning to `O=C(CN[C@H]1CC[C@@H](S(=O)(=O)c2cccc(C(F)(F)F)c2)CC1)NC1CCCCC1` [Compound 56, N-cyclohexyl-2-((1S,4S)-4-(3-(trifluoromethyl)phenylsulfonyl)cyclohexylamino)acetamide], the IC50 in test [1] is 820 nM; in test [2], 480 nM; in test [3], 260 nM.

For the compound `O=C(NC1CCC(S(=O)(=O)c2cccc(C(F)(F)F)c2)CC1)c1ccc(C(F)(F)F)nc1` (stereo not drawn) [Compound 8, 6-(trifluoromethyl)-N-(4-(3-(trifluoromethyl)phenylsulfonyl)cyclohexyl)nicotinamide], the IC50 in test [1] was greater than 10000 nM; in test [2], 6710 nM; in test [3] it was 2300 nM.

Regarding `CC1(CNC(=O)c2ccc(C(F)(F)F)cn2)CCC(S(=O)(=O)c2cccc(C(F)(F)F)c2)CC1` (stereo not drawn) [Compound 208, N-((1-methyl-4-(3-(trifluoromethyl)phenylsulfonyl)cyclohexyl)methyl)-5-(trifluoromethyl)picolinamide], the IC50 is 1140 nM in test [1], 1110 nM in test [2] and 590 nM in test [3].

Take `O=C(N[C@H]1CC[C@H](CS(=O)(=O)c2cccc(C(F)(F)F)c2)CC1)c1cc(-c2ccc(F)cc2)n[nH]1` [Compound 108, 3-(4-fluorophenyl)-N-((1R,4R)-4-((3-(trifluoromethyl)phenylsulfonyl)methyl)cyclohexyl)-1H-pyrazole-5-carboxamide]: the IC50 in test [1] was 6300 nM; in test [2] it was greater than 10000 nM; in test [3] it was 720 nM.

Regarding `O=C(NC[C@H]1C[C@@H](S(=O)(=O)c2cccc(C(F)(F)F)c2)C1)c1ccnc(C(F)(F)F)c1` [Compound 386, 2-(trifluoromethyl)-N-(((1S,3S)-3-(3-(trifluoromethyl)phenylsulfonyl)cyclobutyl)methyl)isonicotinamide], the half-maximal inhibitory concentration (IC50) in test [1] is 490 nM; in test [2], 270 nM; in test [3], 2370 nM.

As for `O=C(NC[C@H]1C[C@H](S(=O)(=O)c2cccc(C(F)(F)F)c2)C1)c1ccnn1CC(F)(F)F` [Compound 367, 1-(2,2,2-trifluoroethyl)-N-(((1R,3R)-3-(3-(trifluoromethyl)phenylsulfonyl)cyclobutyl)methyl)-1H-pyrazole-5-carboxamide], the IC50 was 900 nM in test [1], 350 nM in test [2] and 850 nM in test [3].

As to `O=C(CN[C@H]1C[C@H](CS(=O)(=O)c2cccc(C(F)(F)F)c2)C1)NC1CCCCC1` [Compound 353, N-cyclohexyl-2-((1R,3R)-3-((3-(trifluoromethyl)phenylsulfonyl)methyl)cyclobutylamino)acetamide], the IC50 in test [1] came out at 5020 nM; in test [2], 1980 nM; in test [3], 3210 nM.

For the compound `O=C(NC[C@H]1C[C@@H](S(=O)(=O)c2cccc(C(F)(F)F)c2)C1)c1ccnn1CC(F)(F)F` [Compound 387, 1-(2,2,2-trifluoroethyl)-N-(((1S,3S)-3-(3-(trifluoromethyl)phenylsulfonyl)cyclobutyl)methyl)-1H-pyrazole-5-carboxamide], the 50% inhibitory concentration (IC50) in test [1] stood at 720 nM; in test [2], 710 nM; in test [3] it was 4220 nM.
